Assay results from patent publication US20240425499A1, “TYRO3 INHIBITORS” (HALIA THERAPEUTICS, INC., priority 2021, published 2024).

biological target: recombinant human TYRO3 (Homo sapiens (Human), UniProt Q06418); experiment: TYRO3 enzymatic assay (radiometric [32P]-ATP, Poly(Glu,Tyr) substrate); format: biochemical; conditions: recombinant human TYRO3, [32P]-ATP
Procedure: Poly(Glu, Tyr) sodium salt (Glu:Tyr (4:1), quality level 200, molecular weight 5,000-20,000, obtained from Sigma Aldrich, catalogue #P7244, assay concentration 0.20 mg/mL) and recombinant human TYRO3 (obtained from ThermoFisher Scientific, catalogue #PV3828, assay concentration 2 nM) were mixed in assay buffer (20 mM Hepes pH 7.5, 10 mM MgCl2, 1 mM EGTA, 0.02% Brij35, 0.02 mg/ml BSA, 0.1 mM Na3VO4, 2 mM DTT, 1% DMSO, with added MnCl2 at a final concentration of 2 mM). Compounds of interest (in DMSO, serial 3-fold dilution from 10 μM to 0.5 nM) or control (1% DMSO) were dispensed into the kinase reaction mixture by Acoustic technology (Echo550; nanoliter range). After incubation at room temperature for 20 minutes, the kinase reaction was initiated by addition of [^32P]-ATP (Specific activity 10 μCi/μl) and the mixture was incubated at room temperature for 2 hours. The reaction was then stopped by spotting the reaction mixture on strips of phosphocellulose P81 paper. Following washing, the radioactivity of the P81 paper was measured and kinase activity data were expressed as the percent remaining kinase activity in test samples compared to vehicle (dimethyl sulfoxide) reactions. IC50 values and curve fits were obtained using Prism (GraphPad Software).

Chain of recombinant human TYRO3 (Q06418 41-890): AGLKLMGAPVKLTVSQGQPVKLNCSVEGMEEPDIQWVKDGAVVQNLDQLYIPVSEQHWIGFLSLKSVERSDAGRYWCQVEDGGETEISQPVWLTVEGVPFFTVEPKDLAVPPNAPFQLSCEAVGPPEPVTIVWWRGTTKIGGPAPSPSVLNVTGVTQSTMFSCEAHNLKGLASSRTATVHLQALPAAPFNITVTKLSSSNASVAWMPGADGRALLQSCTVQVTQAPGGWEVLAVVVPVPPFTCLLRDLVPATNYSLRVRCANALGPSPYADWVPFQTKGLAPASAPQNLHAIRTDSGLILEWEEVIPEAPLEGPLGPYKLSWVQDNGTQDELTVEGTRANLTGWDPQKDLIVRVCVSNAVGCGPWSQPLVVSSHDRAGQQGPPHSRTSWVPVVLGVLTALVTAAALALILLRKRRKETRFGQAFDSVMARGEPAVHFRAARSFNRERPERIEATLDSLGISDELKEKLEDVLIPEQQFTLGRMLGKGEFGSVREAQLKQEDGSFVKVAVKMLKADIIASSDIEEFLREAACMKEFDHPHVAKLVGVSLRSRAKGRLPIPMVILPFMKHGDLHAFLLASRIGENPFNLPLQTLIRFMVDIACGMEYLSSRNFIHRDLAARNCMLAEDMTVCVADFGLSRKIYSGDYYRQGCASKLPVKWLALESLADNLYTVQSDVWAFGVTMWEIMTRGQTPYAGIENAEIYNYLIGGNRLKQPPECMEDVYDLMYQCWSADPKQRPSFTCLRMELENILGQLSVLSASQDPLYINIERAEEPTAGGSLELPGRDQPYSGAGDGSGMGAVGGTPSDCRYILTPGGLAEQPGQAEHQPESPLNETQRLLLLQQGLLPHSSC

Row | SMILES | IC50
1 | Cc1ccc(-c2c[nH]c3ncc(-c4ccc(CN5CCCC(O)C5)cc4)cc23)cn1 (stereo not shown) [compound 20, 1-(4-(3-(6-methylpyridin-3-yl)-1H-pyrrolo[2,3-b]pyridin-5-yl)benzyl)piperidin-3-ol] | 51 to 150 nM
2 | CCN1CCc2cc(-c3c[nH]c4ncc(-c5ccc(CN6CCCC(O)C6)cc5)cc34)ccc2C1 (stereo not shown) [compound 81, 1-(4-(3-(2-ethyl-1,2,3,4-tetrahydroisoquinolin-6-yl)-1H-pyrrolo[2,3-b]pyridin-5-yl)benzyl)piperidin-3-ol] | 51 to 150 nM
3 | CC(C)Oc1ccc(-c2c[nH]c3ncc(-c4ccc(CN5CCCC(O)C5)cc4)cc23)cc1C#N (stereo not shown) [compound 19, 5-(5-(4-((3-hydroxypiperidin-1-yl)methyl)phenyl)-1H-pyrrolo[2,3-b]pyridin-3-yl)-2-isopropoxybenzonitrile] | 51 to 150 nM

More lines, now with the values ahead:

Row | IC50 | SMILES
4 | 51 to 150 nM | OC1CCCN(Cc2ccc(-c3cnc4[nH]cc(-c5cccc(Cl)c5)c4c3)cc2)C1 (stereo not shown) [compound 8, 1-(4-(3-(3-chlorophenyl)-1H-pyrrolo[2,3-b]pyridin-5-yl)benzyl)piperidin-3-ol]
5 | 51 to 150 nM | COc1ccc(-c2c[nH]c3ncc(-c4ccc(CN5CC(OC)C5)cc4)cc23)cn1 [compound 35, 5-(4-((3-methoxyazetidin-1-yl)methyl)phenyl)-3-(6-methoxypyridin-3-yl)-1H-pyrrolo[2,3-b]pyridine]
6 | 151 to 500 nM | OC1CCCN(Cc2ccc(-c3cnc4[nH]cc(-c5ccc(C(F)(F)F)cc5)c4c3)cc2)C1 (stereo not shown) [compound 10, 1-(4-(3-(4-(trifluoromethyl)phenyl)-1H-pyrrolo[2,3-b]pyridin-5-yl)benzyl)piperidin-3-ol]
7 | 51 to 150 nM | OCc1[nH]c2ncc(-c3ccc(CN4CCCC(O)C4)cc3)cc2c1-c1cccc(F)c1 (single isomer, unassigned; enantiomer 2) [compound 89, 1-(4-(3-(3-fluorophenyl)-2-(hydroxymethyl)-1H-pyrrolo[2,3-b]pyridin-5-yl)benzyl)piperidin-3-ol Enantiomer 2]
